From the supplement of paper PMC8967900

Assays:
Assay in all cases: selective drug sensitivity score (sDSS, relative to normal bone marrow) (sDSS (score)); higher = more potent and effective on the cell line relative to normal bone marrow cells
Details in all cases: 72 h
380 = system: 380
ALL-PO = system: ALL-PO
ALL-SIL = system: ALL-SIL
COG-LL-317 = system: COG-LL-317
COG-LL-319h = system: COG-LL-319h
COG-LL-355h = system: COG-LL-355h
COG-LL-394h = system: COG-LL-394h
DND-41 = system: DND-41
HPB-ALL = system: HPB-ALL
JURKAT = system: JURKAT
KASUMI-10 = system: KASUMI-10
KASUMI-9 = system: KASUMI-9
MOLT-14 = system: MOLT-14
MOLT-4 = system: MOLT-4
NALM-16 = system: NALM-16
P30-OHKUBO = system: P30-OHKUBO
PEER = system: PEER
RCH-ACV = system: RCH-ACV
REH = system: REH
TANOUE = system: TANOUE
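Note: ALL cell lines in 384-well plates, five doses spanning 10,000-fold, each plate scaled between vehicle and 100 µmol/L benzalkonium chloride controls, sDSS an adapted area-under-curve metric.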

| Compound | selective drug sensitivity score 380 | selective drug sensitivity score (ALL-PO) | selective drug sensitivity score (ALL-SIL) | selective drug sensitivity score (COG-LL-317) | selective drug sensitivity score (COG-LL-319h) | selective drug sensitivity score (COG-LL-355h) | selective drug sensitivity score (COG-LL-394h) | selective drug sensitivity score (DND-41) | selective drug sensitivity score (HPB-ALL) | selective drug sensitivity score (JURKAT) | selective drug sensitivity score (KASUMI-10) | selective drug sensitivity score (KASUMI-9) | selective drug sensitivity score (MOLT-14) | selective drug sensitivity score (MOLT-4) | selective drug sensitivity score (NALM-16) | selective drug sensitivity score (P30-OHKUBO) | selective drug sensitivity score (PEER) | selective drug sensitivity score (RCH-ACV) | selective drug sensitivity score (REH) | selective drug sensitivity score (TANOUE) |
| --- | --- | --- | --- | --- | --- | --- | --- | --- | --- | --- | --- | --- | --- | --- | --- | --- | --- | --- | --- | --- |
| C[C@]12CC[C@H](O)CC1=CC[C@@H]1[C@@H]2CC[C@]2(C)C(c3cccnc3)=CC[C@@H]12 [Abiraterone] (top concentration 5000 nM) | 0.58 | 3.48 | -0.12 | -0.12 | 0.08 | -0.12 | -0.12 | -0.12 | -0.12 | 0.18 | -0.12 | -0.12 | -0.12 | -0.12 | -0.12 | 1.48 | -0.12 | -0.02 | -0.12 | -0.12 |
| Cc1cccc(-c2nn3c(c2-c2ccnc4ccc(C(N)=O)cc24)CCC3)n1 [Galunisertib] (top concentration 1000 nM) | 0 | 0 | 0 | 0 | 0 | 0 | 0 | 0 | 0 | 0 | 0 | 1.3 | 0 | 0 | 0 | 2.9 | 0 | 0 | 0 | 0 |
| COc1cc(NS(C)(=O)=O)ccc1Nc1c2ccccc2nc2ccccc12 [Amsacrine] (top concentration 10000 nM) | 23.2 | 5.66 | 10.2 | 25.8 | 18.2 | 11 | 8.26 | 4.16 | 2.56 | 7.96 | 11 | 16 | 18.8 | 21.3 | 0.66 | 13 | 3.16 | 24.7 | 19.1 | -11.2 |
| CC(C)n1cnc2c(NCCc3ccc(O)cc3)nc(-c3csc4ccccc34)nc21 [StemRegenin_1] (top concentration 10000 nM) | -1.8 | 1.9 | 3.8 | -0.3 | -1.8 | -0.1 | -1.8 | 4.5 | 6.4 | 1 | -1.8 | -0.5 | -0.2 | 2.5 | -1.8 | 2.2 | 1.5 | -0.6 | 1.8 | 4.2 |
| CC1(C)CNc2cc(NC(=O)c3cccnc3NCc3ccncc3)ccc21 [Motesanib] (top concentration 10000 nM) | -0.22 | -0.22 | -0.22 | -0.22 | 0.08 | -0.22 | 0.78 | -0.22 | -0.22 | -0.22 | -0.22 | -0.22 | -0.22 | -0.22 | -0.22 | -0.22 | 0.38 | -0.22 | -0.22 | 1.58 |
| CNC(=O)c1cccc2cc(Oc3ccnc4cc(OCC5(N)CC5)c(OC)cc34)ccc12 [Lucitanib] (top concentration 10000 nM) | 1.18 | 2.08 | 4.88 | 2.78 | 1.98 | -0.62 | 1.58 | 5.08 | 3.18 | 2.78 | 5.18 | 6.28 | 2.28 | 4.18 | -0.62 | 5.88 | 3.08 | 6.38 | 6.88 | 0.28 |
| COC(=O)c1ccc([C@H]2c3[nH]c4ccccc4c3C[C@H](C(=O)OC)N2C(=O)CCl)cc1 [RSL3] (top concentration 10000 nM) | 14.2 | 0 | 0 | 0.3 | 0 | 3.8 | 0 | 0 | 0.4 | 0 | 0.3 | 0 | 0 | 0 | 0 | 2.7 | 0 | 4.5 | 3.1 | 0 |
| O=C1c2c(O)ccc(O)c2C(=O)c2c(NCCNCCO)ccc(NCCNCCO)c21 [Mitoxantrone] (top concentration 1000 nM) | 16.3 | -0.06 | 7.44 | 16.2 | 16.3 | 7.94 | 13.2 | 2.84 | -3.06 | -3.86 | 12.7 | 11.8 | 11.6 | 8.34 | -5.06 | 7.84 | -6.26 | 16.2 | 12.6 | -12.9 |
| COc1cc(C)[nH]c(=O)c1CNC(=O)c1c(C)n([C@H](C)C2CCOCC2)c2ccccc12 [CPI-360] (top concentration 10000 nM) | 5.1 | 0 | 0 | 0 | 0 | 0 | 0 | 0 | 0 | 0.1 | 0 | 0 | 0 | 0 | 0 | 1.8 | 0 | 0 | 0 | 0 |
| C/C(=C\c1csc(C)n1)[C@@H]1C[C@@H]2O[C@]2(C)CCC[C@H](C)[C@H](O)[C@@H](C)C(=O)C(C)(C)[C@@H](O)CC(=O)N1 [Ixabepilone] (top concentration 1000 nM) | 2.08 | 2.28 | 2.98 | 2.98 | 3.68 | 2.48 | 2.18 | 1.28 | 7.08 | 3.28 | 1.58 | 2.58 | 4.58 | 3.98 | 2.88 | 3.78 | 3.28 | 6.78 | 3.78 | -1.92 |
| Cn1cc(C[C@@H](N)C(=O)O)c2ccccc21 [1-methyl-D-tryptophan] (top concentration 5000 nM) | -0.02 | -0.62 | -0.62 | -0.62 | -0.62 | -0.62 | -0.62 | -0.62 | -0.62 | -0.62 | -0.62 | -0.62 | -0.62 | -0.62 | -0.62 | 0.58 | -0.62 | -0.62 | 3.68 | -0.62 |
| C=CC(=O)N1CCC(Oc2cc3c(Nc4ccc(Cl)c(Cl)c4F)ncnc3cc2OC)CC1 [Poziotinib] (top concentration 1000 nM) | -0.22 | -0.22 | 3.48 | 2.68 | 3.98 | -0.22 | -0.22 | 2.08 | -0.12 | -0.22 | -0.22 | 0.98 | 0.78 | -0.22 | -0.22 | -0.22 | -0.22 | 4.98 | -0.22 | -0.22 |
| C[C@@H](Oc1cc(-c2cnn(C3CCNCC3)c2)cnc1N)c1c(Cl)ccc(F)c1Cl [Crizotinib] (top concentration 1000 nM) | -0.54 | 1.46 | 5.46 | -0.54 | -0.54 | 2.16 | 0.86 | -0.54 | -0.54 | -0.54 | -0.54 | -0.54 | -0.54 | -0.54 | -0.54 | -0.54 | 1.86 | -0.54 | -0.54 | -0.54 |
| N#CC(c1ccnc(OCc2ccc(CN3CCOCC3)cc2)n1)c1nc2ccccc2s1 (stereo not given) [Bentamapimod] (top concentration 10000 nM) | -0.46 | 6.24 | 2.34 | 3.34 | -0.06 | 1.84 | 3.44 | 3.64 | 3.34 | 3.94 | -0.46 | 6.24 | 2.74 | 1.74 | -0.46 | 5.34 | 5.64 | 4.44 | 6.54 | 0.84 |
| CCCN(CCC)C(=O)C1=Cc2ccc(-c3ccc(C(=O)N4CCCC4)cc3)cc2N=C(N)C1 [Motolimod] (top concentration 10000 nM) | -4.38 | -3.88 | -3.48 | -4.08 | -4.18 | -2.38 | 0.42 | -4.08 | -3.38 | -2.58 | -2.28 | 1.22 | -4.28 | -4.08 | -4.48 | -1.58 | -3.18 | -1.68 | -2.48 | -4.48 |
| COc1cc2ncnc(Nc3cccc(Cl)c3F)c2cc1OC(=O)N1CCN(C)C[C@H]1C [AZD3759] (top concentration 1000 nM) | -0.04 | 1.26 | 5.76 | -0.04 | 0.96 | -0.04 | -0.04 | -0.04 | -0.04 | -0.04 | -0.04 | -0.04 | -0.04 | -0.04 | -0.04 | -0.04 | -0.04 | -0.04 | 0.66 | -0.04 |
| Cc1c(F)cc(C(=O)NC2CC2)cc1-c1ccc(C(=O)NCC(C)(C)C)cn1 [Losmapimod] (top concentration 10000 nM) | -0.18 | -0.18 | -0.18 | -0.18 | -0.18 | 1.92 | -0.18 | -0.18 | 2.32 | -0.18 | -0.18 | 6.92 | -0.18 | -0.18 | -0.18 | 7.82 | -0.08 | 11.5 | -0.18 | 1.32 |
| CN(CC(=O)N(Cc1ccc(C2CCCCC2)cc1)c1ccc(C(=O)O)cc1)S(=O)(=O)c1c(F)c(F)c(F)c(F)c1F [SH-4-54] (top concentration 25000 nM) | 6.06 | -6.04 | -3.84 | -5.44 | -3.04 | -0.54 | -5.34 | -2.74 | -6.84 | -6.14 | -3.64 | -6.14 | -4.34 | -6.04 | -5.04 | -5.24 | -4.54 | -2.24 | -5.04 | -4.04 |
